Assay results taken from patent publication US20220281822A1, “PLANT GROWTH REGULATOR AND METHOD FOR PROMOTING PLANT GROWTH” (Kureha Corporation, priority 2019, published 2022).

How the values were obtained:
Assay type in all cases: in vivo
[1] = system: Arabidopsis thaliana (Col-O); experiment: Seed yield of Arabidopsis thaliana at different compound concentrations (Examples 2 to 4); conditions: for Seed yield Ratio: 85th day, Comparative Example 6 (distilled water) set to 1; for Seed yield: harvested on 85th day after seeding, 22° C.
Description: One individual Arabidopsis thaliana (Col-O) was sown in a plastic pot having a diameter of 60 mm and a height of 55 mm. Plastic deep dishes each having a diameter of 160 mm and a height of 28 mm were prepared, and six pots were respectively placed therein. As soil, 45 mL of vermiculite, 22.5 mL of granular soil (JA Granular Kumiai Synthetic Soil No. 3), and 22.5 mL of vermiculite were placed in each pot in this order.
The procedure was the same as in Example 1, except that the room temperature was set to 22° C.
On the 85th day after seeding, seeds were harvested, and the seed yield (mg/plant) was measured.
The same operation as in Example 2 was carried out except that the concentration of L-(+)-ergothioneine aqueous solution was set to 0.1 mM.
The same operation as in Example 2 was carried out except that the concentration of L-(+)-ergothioneine aqueous solution was set to 0.01 mM. […]
The same operation as in Example 2 was carried out except that the L-(+)-ergothioneine aqueous solution was replaced with distilled water.
(§1) The ratio of “grass height” and “flowers and fruits” for Example 1, Comparative Example 1, and Comparative Example 2 to the results of Comparative Example 2 are shown in Table 1 as “Ratio”, respectively. The “seed yield” for Examples 2 to 4 and Comparative Examples 3 to 6 are shown as “Ratio” in Table 2, where the value for Comparative Example 6 is set to 1. The “seed yield” for Examples 5 and 6 and Comparative Examples 7 and 8 are shown as “Ratio” in Table 3, where the value for Comparative Example 8 is set to 1.

[2] = system: Arabidopsis thaliana (Col-O); experiment: Seed yield of Arabidopsis thaliana at different times of treatment (Examples 5 and 6); conditions: 1 mM; for Seed yield: harvested on 82nd day, 22° C.; for Seed yield Ratio: 82nd day, Comparative Example 8 (distilled water) set to 1
Description: The same operation as in Example 2 was carried out.
The same operation as in Example 1 was carried out except that the room temperature was set at 22° C. and L-(+)-ergothioneine was added 2 weeks after seeding, more specifically on the 8th, 10th, 12th, and 14th days.
On the 82nd day after seeding, seeds were harvested, and the seed yield (mg/plant) was measured.
The same operation as in Example 5 was carried out except that L-(+)-ergothioneine was added 4 weeks after seeding, more specifically on the 22nd, 24th, 26th, and 28th days.
The same operation as in Example 5 was carried out except that oxidized glutathione was used in place of L-(+)-ergothioneine in the aqueous solution and added 4 weeks after seeding, more specifically on the 22nd, 24th, 26th, and 28th days.
The same operation as in Example 5 was carried out except that the L-(+)-ergothioneine aqueous solution was replaced with distilled water.
as §1

[3] = system: Arabidopsis thaliana (Col-O); experiment: Plant height and number of flowers and fruits of Arabidopsis thaliana after treatment via water supply (Example 1); conditions: for Flower and Fruit Ratio / Plant height Ratio: 1 mM, 37th day after seeding, ratio to Comparative Example 2 (distilled water); for Flower and Fruit / Plant height: 50 mL of 1 mM aqueous solution on 21st, 23rd, 25th, 27th days after seeding, measured on 37th day, 25° C.
Description: Arabidopsis thaliana (Col-O) was sown in plastic pots having a width of 65 mm, a depth of 65 mm, and a height of 70 mm, three individuals per pot. Plastic deep dishes each having a diameter of 160 mm and a height of 28 mm were prepared, and three pots were respectively placed therein. As soil, 100 mL of vermiculite, 50 mL of granular soil (JA Granular Kumiai Synthetic Soil No. 3), and 50 mL of vermiculite were placed in each pot in this order.
In a thermostatic chamber set at room temperature of 25° C., the light period was 16 hours and the dark period was 8 hours. The light conditions were set using a fluorescent lamp (PLANT FLEC, 40 W LED fluorescent lamp for plant growth, electric bulb color, available from Nippon Medical and Chemical Instruments Co., Ltd.) so that the light intensity was 5000 lx in the central part under the fluorescent lamp irradiation. Water supply was done from the bottom, and the water level was set at about 5 mm. Ergothioneine treatment was started 4 weeks after seeding. More specifically, on the 21st, 23rd, 25th, and 27th days after seeding, 50 mL of a 1 mM L-(+)-ergothioneine (available from Cayman Chemical) aqueous solution was added instead of water supply.
On the 37th day after seeding, the plant height (cm) and the number of flowers and fruits per Arabidopsis thalianawere measured.
The same operation as in Example 1 was carried out except that L-(+)-ergothioneine in the aqueous solution was replaced with oxidized glutathione (available from Wako Pure Chemical Industries, Ltd.).
The same operation as in Example 1 was carried out except that the L-(+)-ergothioneine aqueous solution was replaced with distilled water.
as §1

[4] = time of treatment 4 weeks after seeding (22nd, 24th, 26th, 28th days)
[5] = time of treatment 4 weeks after seeding

N[C@@H](CCC(=O)O)C(=O)O [L-glutamic acid, reference compound]
Seed yield Ratio ([1]; compound concentration 1 mM): 1.0 | Seed yield ([1]; compound concentration 1 mM): 90 mg/plant

oxidized glutathione [reference compound]
Seed yield Ratio ([1]; compound concentration 1 mM): 1.2 | Seed yield ([1]; compound concentration 1 mM): 100 mg/plant | Seed yield [2, 4]: 92 mg/plant | Seed yield Ratio [2, 5]: 1.3 | Flower and Fruit Ratio [3]: 1.5 | Plant height Ratio [3]: 1.1 | Flower and Fruit [3]: 22 Number/plant | Plant height [3]: 24 cm

O=C(O)[C@@H]1CCCN1 [L-proline, reference compound]
Seed yield Ratio ([1]; compound concentration 1 mM): 1.2 | Seed yield ([1]; compound concentration 1 mM): 102 mg/plant

C[N+](C)(C)[C@@H](Cc1c[nH]c(=S)[nH]1)C(=O)[O-] [L-(+)-ergothioneine]
Seed yield Ratio ([1]; compound concentration 0.01 mM): 1.3 | Seed yield ([1]; compound concentration 0.01 mM): 109 mg/plant | Seed yield Ratio ([1]; compound concentration 0.1 mM): 1.5 | Seed yield ([1]; compound concentration 0.1 mM): 130 mg/plant | Seed yield Ratio ([1]; compound concentration 1 mM): 1.7 | Seed yield ([1]; compound concentration 1 mM): 142 mg/plant | Seed yield ([2]; time of treatment 2 weeks after seeding (8th, 10th, 12th, 14th days)): 140 mg/plant | Seed yield Ratio ([2]; time of treatment 2 weeks after seeding): 2.0 | Seed yield [2, 4]: 114 mg/plant | Seed yield Ratio [2, 5]: 1.7 | Flower and Fruit Ratio [3]: 1.7 | Plant height Ratio [3]: 1.3 | Flower and Fruit [3]: 26 Number/plant | Plant height [3]: 29 cm
